Laboratory results reported in patent US9976134B2, “Thermolysin variants” (Danisco US Inc., priority 2007, dated 2018).

Target: T1, thermolysin (Bacillus thermoproteolyticus, UniProt P00800)
T1 construct: purchased Sigma
T1 sequence (P00800 233-548): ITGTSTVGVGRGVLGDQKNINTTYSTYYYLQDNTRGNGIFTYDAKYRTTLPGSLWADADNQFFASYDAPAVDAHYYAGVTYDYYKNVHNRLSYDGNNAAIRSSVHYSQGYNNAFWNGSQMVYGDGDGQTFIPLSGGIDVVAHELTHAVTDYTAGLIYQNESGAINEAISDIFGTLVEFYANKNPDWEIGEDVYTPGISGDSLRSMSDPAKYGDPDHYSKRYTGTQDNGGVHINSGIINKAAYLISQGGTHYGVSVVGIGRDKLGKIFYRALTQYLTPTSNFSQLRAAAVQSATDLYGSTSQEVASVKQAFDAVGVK
Experiment: Stabilisation of thermolysin in Unilever ALL Small and Mighty detergent by metalloproteinase inhibitors (SDS-PAGE)
Conditions: 500 μM inhibitor, thermolysin 800 μg/ml in Unilever ALL Small and Mighty, FIG. 8
Method: Zinc Chloride, Phosphoramidon, Galardin are known metalloproteinase inhibitors. They were purchased from Sigma and dissolved in water or DMSO. Different concentrations of the inhibitors were premixed with thermolysin (also referred to as Proteinase-T or PrT) for 10 min at room temperature. Then the inhibitors were added into Unilever detergent ALL Small and Mighty so that the final concentration of thermolysin was 800 μg/ml in a total volume of 1 ml. At different time points, samples were taken and precipitated with TCA. Briefly, 10 μl sample of detergent with enzyme was added into 500 μl of 0.2 N HCl on ice, and then 500 μl of 20% TCA was added. The tubes were mixed and incubated on ice for 20 min. The pellet was collected and washed with 90% ice-cold acetone. The pellet was dissolved in sample loading buffer (Invitrogen) for SDS-PAGE analysis.

In the case of `CC(C)C[C@H](NP(=O)(O)O[C@@H]1O[C@@H](C)[C@H](O)[C@@H](O)[C@H]1O)C(=O)N[C@@H](Cc1c[nH]c2ccccc12)C(=O)O` [Phosphoramidon], the “stabilisation of thermolysin in detergent” value is reported as “significantly stabilize thermolysin in detergent”.
